Where only a bound is given, the exact number is not on record here.

The values below come from patent publication US12655106B2 (Eikonizo Therapeutics, Inc., priority 2021, dated 2026).

Assay [1] concerns the target T1, Full length Human HDAC6 (Homo sapiens, UniProt Q9UBN7).
T1 construct: Full length Human HDAC6; FLAG (C); host or cells: baculovirus expression system
T1 sequence (Q9UBN7 1-1215): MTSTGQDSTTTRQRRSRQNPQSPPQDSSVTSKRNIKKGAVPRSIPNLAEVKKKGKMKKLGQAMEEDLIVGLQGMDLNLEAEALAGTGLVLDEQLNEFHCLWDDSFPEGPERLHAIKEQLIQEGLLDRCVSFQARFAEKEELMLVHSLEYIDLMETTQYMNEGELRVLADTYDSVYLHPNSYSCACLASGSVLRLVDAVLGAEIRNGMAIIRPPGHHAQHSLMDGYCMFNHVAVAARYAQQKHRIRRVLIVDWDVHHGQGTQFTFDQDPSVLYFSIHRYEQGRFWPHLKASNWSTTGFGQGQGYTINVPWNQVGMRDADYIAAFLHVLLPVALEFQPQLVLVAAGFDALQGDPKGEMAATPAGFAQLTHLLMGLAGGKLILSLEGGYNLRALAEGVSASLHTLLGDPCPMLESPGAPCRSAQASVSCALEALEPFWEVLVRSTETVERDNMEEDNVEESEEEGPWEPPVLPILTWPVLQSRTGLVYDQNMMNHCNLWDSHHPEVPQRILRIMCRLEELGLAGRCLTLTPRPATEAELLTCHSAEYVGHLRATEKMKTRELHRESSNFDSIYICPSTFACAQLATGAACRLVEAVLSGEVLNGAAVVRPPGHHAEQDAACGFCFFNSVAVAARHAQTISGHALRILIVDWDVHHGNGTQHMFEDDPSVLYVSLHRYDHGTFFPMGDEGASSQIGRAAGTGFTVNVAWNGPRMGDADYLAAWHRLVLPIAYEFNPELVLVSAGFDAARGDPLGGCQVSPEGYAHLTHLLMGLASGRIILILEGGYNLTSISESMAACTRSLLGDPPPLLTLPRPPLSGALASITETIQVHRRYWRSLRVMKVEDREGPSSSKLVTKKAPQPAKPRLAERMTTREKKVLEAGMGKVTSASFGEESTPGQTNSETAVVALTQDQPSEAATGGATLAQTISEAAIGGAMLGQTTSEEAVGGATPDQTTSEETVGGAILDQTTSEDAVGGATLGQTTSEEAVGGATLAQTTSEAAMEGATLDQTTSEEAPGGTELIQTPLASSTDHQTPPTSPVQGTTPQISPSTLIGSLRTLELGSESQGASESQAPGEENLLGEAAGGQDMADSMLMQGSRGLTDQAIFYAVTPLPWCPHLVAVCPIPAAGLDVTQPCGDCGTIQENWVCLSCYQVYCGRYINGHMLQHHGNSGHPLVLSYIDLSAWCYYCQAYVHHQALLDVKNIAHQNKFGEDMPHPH
The assay is described as follows: Caliper endpoint assay for HDAC enzymatic activity (HDAC6). The note with it: for IC50: in vitro enzymatic, Caliper endpoint assay, 30 min pre-incubation, 1 μM substrate peptide; for Selectivity (6 v 8): ratio of HDAC8 IC50/HDAC6 IC50. In kind it is biochemical.

For assay [2], the target named is T2, Full length Human HDAC8 (Homo sapiens, UniProt Q9BY41).
T2 construct: Full length Human HDAC8; HIS (N); host or cells: baculovirus expression system
T2 sequence (Q9BY41 1-377): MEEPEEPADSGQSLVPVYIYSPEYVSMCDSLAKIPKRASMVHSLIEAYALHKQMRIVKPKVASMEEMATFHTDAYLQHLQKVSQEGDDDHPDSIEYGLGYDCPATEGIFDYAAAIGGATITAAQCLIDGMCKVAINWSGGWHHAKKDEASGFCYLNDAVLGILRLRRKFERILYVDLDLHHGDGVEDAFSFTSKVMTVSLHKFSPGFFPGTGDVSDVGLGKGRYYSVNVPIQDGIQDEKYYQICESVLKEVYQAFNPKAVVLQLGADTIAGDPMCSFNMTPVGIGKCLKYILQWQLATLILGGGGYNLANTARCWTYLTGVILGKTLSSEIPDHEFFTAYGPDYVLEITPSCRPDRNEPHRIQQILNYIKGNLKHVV
Nature of the assay: Caliper endpoint assay for HDAC enzymatic activity (HDAC8). The assay is classed as biochemical. The note with it: in vitro enzymatic, 30 min pre-incubation, 1 μM substrate peptide.

What is called IC50 is the concentration that inhibits the measured activity by half. The low end stands for greater potency, the high end for weaker potency. For `O=C(NO)c1cc(F)c2c(c1)CCN(C1CCC3(CCN(C4CC4)CC3)C1)C2` (stereo not drawn) [Compound 418, N-2-(8-cyclopropyl-8-azaspiro[4.5]decan-2-yl)-8-fluoro-N-hydroxy-1,2,3,4-tetrahydroisoquinoline-6-carboxamide], in assay [1], the IC50 fell in the range of 1 to 100 nM and the “Selectivity (6 v 8)” value is given as “IV (IV: >100-1000)”. In assay [2], this compound displayed an IC50 of 1000 to 10000 nM.

For the compound `CN1CC[C@@]2(CC[C@H](N3CCc4cc(C(=O)NO)cc(F)c4C3)C2)C1` (single isomer, unassigned) [Compound 405], in assay [1], the half-maximal inhibitory concentration (IC50) was 1 to 100 nM and the “Selectivity (6 v 8)” value is recorded as “V (V: >1000)”. In addition, in assay [2], the IC50 was > 100000 nM.

Consider `O=C(NO)c1ccc2c(c1)C[C@H]1COCCN1C2` [Compound 132], for which the IC50 lay within 1 to 100 nM in assay [1] and 1000 to 10000 nM in assay [2]. Further, the “Selectivity (6 v 8)” value in assay [1] is given as “IV (IV: >100-1000)”.

For the compound `O=C(NO)c1cc(F)c2c(c1)CCN(C1CCC13CCN(C1CC1)CC3)C2` (stereo not drawn) [Compound 359, 2-(7-cyclopropyl-7-azaspiro[3.5]nonan-3-yl)-8-fluoro-3,4-dihydro-1H-isoquinoline-6-carbohydroxamic acid], the values for the IC50 in assay [1] and in assay [2] were 100 to 1000 nM and 1000 to 10000 nM, respectively. For the same compound, in assay [1], the “Selectivity (6 v 8)” value was “III (III: >10-100)”.

Turning to `O=C(NO)c1cc(F)c2c(c1)CCN([C@H]1C[C@]3(CCCCO3)C1)C2` (single isomer, unassigned) [Compound 339, 8-fluoro-2-(5-oxaspiro[3.5]nonan-2-yl)-3,4-dihydro-1H-isoquinoline-6-carbohydroxamic acid], in assay [1], the IC50 was in the range of 1 to 100 nM and the “Selectivity (6 v 8)” value is listed as “IV (IV: >100-1000)”. This compound also came in with a concentration for half-maximal inhibition (IC50) in assay [2] of 10000 to 100000 nM.

For the compound `CN1CCC[C@]2(CC[C@@H]2N2CCc3cc(C(=O)NO)cc(F)c3C2)C1` (single isomer, unassigned) [Compound 365], in assay [1], the IC50 lay within 1 to 100 nM and the “Selectivity (6 v 8)” value is listed as “IV (IV: >100-1000)”. Further, the IC50 in assay [2] lay in the range of 10000 to 100000 nM.

Turning to `CC[C@H]1CCCN1Cc1ccc(C(=O)NO)cc1F` [Compound 49], the figures for the half-maximal inhibitory concentration (IC50) in assay [1] and in assay [2] were 100 to 1000 nM and 1000 to 10000 nM, respectively.

Turning to `CN1CC[C@]2(CC[C@H]2N2CCc3cc(C(=O)NO)cc(F)c3C2)C1` (single isomer, unassigned) [Compound 332], in assay [1], the IC50 was in the range of 100 to 1000 nM and the “Selectivity (6 v 8)” value is “III (III: >10-100)”. Further, the IC50 in assay [2] was in the range of 1000 to 10000 nM.

`CC(=O)N1CC2(CCC2N2CCc3cc(C(=O)NO)cc(F)c3C2)C1` (stereo not drawn) [Compound 304, 2-(2-acetyl-2-azaspiro[3.3]heptan-7-yl)-8-fluoro-3,4-dihydro-1H-isoquinoline-6-carbohydroxamic acid]: in assay [1], the IC50 is 1 to 100 nM and the “Selectivity (6 v 8)” value is “IV (IV: >100-1000)”. This compound also came in with an IC50 in assay [2] of 1000 to 10000 nM.

`CC(=O)N1CC[C@H](N2CCc3cc(C(=O)NO)cc(F)c3C2)CC12CCC2` (single isomer, unassigned) [Compound 441]: in assay [1], the IC50 was in the range of 1 to 100 nM and the “Selectivity (6 v 8)” value is “IV (IV: >100-1000)”. The same compound gave an IC50 in assay [2] of 1000 to 10000 nM.

On to `C[C@@H]1CC[C@@H]2c3c(F)cc(C(=O)NO)cc3CCN12` (single isomer, unassigned) [Compound 156], for which the IC50 in assay [1] fell in the range of 100 to 1000 nM; in assay [2], 1000 to 10000 nM.

With `CN1CC2(CN3CCc4cc(C(=O)NO)cc(F)c4C3)CC1C2` [Compound 490, 8-fluoro-2-[(2-methyl-2-azabicyclo[2.1.1]hexan-4-yl)methyl]-3,4-dihydro-1H-isoquinoline-6-carbohydroxamic acid], in assay [1], the half-maximal inhibitory concentration (IC50) lay in the range of 1 to 100 nM and the “Selectivity (6 v 8)” value is recorded as “IV (IV: >100-1000)”. The IC50 in assay [2] was 1000 to 10000 nM.

With `O=C(NO)c1cc(F)c2c(c1)CCN1CCC[C@@H]21` [Compound 79], the IC50 in assay [1] was in the range of 1 to 100 nM; in assay [2], 1000 to 10000 nM. Besides, the “Selectivity (6 v 8)” value in assay [1] is listed as “IV (IV: >100-1000)”.

On to `O=C(NO)c1cc(F)c2c(c1)CCN([C@H]1CC[C@@]13CCOC3)C2` (single isomer, unassigned) [Compound 315], for which, in assay [1], the IC50 was in the range of 1 to 100 nM and the “Selectivity (6 v 8)” value is on record as “IV (IV: >100-1000)”. For the same compound, the IC50 in assay [2] was in the range of 10000 to 100000 nM.

For `O=C(NO)c1cc(F)c2c(c1)C[C@@H]1CCC3(CCCCC3)CN1C2` (single isomer, unassigned) [Compound 137], the IC50 was in the range of 100 to 1000 nM in assay [1] and 10000 to 100000 nM in assay [2].

For `O=C(NO)c1cc(F)c2c(c1)CCN(C1CC3(CNC3)C1)C2` [Compound 289, 2-(2-azaspiro[3.3]heptan-6-yl)-8-fluoro-3,4-dihydro-1H-isoquinoline-6-carbohydroxamic acid], in assay [1], the IC50 lay within 1 to 100 nM and the “Selectivity (6 v 8)” value is listed as “IV (IV: >100-1000)”. In assay [2], this compound yielded a half-maximal inhibitory concentration (IC50) of 1000 to 10000 nM.

With `O=C(NO)c1cc(F)c2c(c1)CCN(C[C@H]1CCCCO1)C2` (single isomer, unassigned) [Compound 175], in assay [1], the IC50 is 1 to 100 nM and the “Selectivity (6 v 8)” value is on record as “IV (IV: >100-1000)”. In assay [2], this compound came in with an IC50 of 10000 to 100000 nM.

As to `CNC12CC(CN3CCc4cc(C(=O)NO)cc(F)c4C3)(C1)C2` [Compound 487, 8-fluoro-2-[[3-(methylamino)-1-bicyclo[1.1.1]pentanyl]methyl]-3,4-dihydro-1H-isoquinoline-6-carbohydroxamic acid], the figures for the IC50 in assay [1] and in assay [2] were 1 to 100 nM and 1000 to 10000 nM, respectively. Also, the “Selectivity (6 v 8)” value in assay [1] was “IV (IV: >100-1000)”.

`CN1CC[C@@]2(CC[C@@H]2N2CCc3cc(C(=O)NO)cc(F)c3C2)C1` (single isomer, unassigned) [Compound 329]: in assay [1], the IC50 lay within 1 to 100 nM and the “Selectivity (6 v 8)” value was “III (III: >10-100)”. Also, the half-maximal inhibitory concentration (IC50) in assay [2] fell in the range of 1000 to 10000 nM.

For the compound `Cc1cc2c(cc1C(=O)NO)CCN(C1CC3(CCCCC3)C1)C2`, the results for the IC50 in assay [1] and in assay [2] were > 100000 nM and 10000 to 100000 nM, respectively. Further, the “Selectivity (6 v 8)” value in assay [1] is recorded as “V (V: >1000)”.

In the case of `O=C(NO)c1cc(F)c2c(c1)CCN(C1CC3(CCOCC3)C1)C2` [Compound 179, 8-Fluoro-N-hydroxy-2-(7-oxaspiro[3.5]nonan-2-yl)-1,2,3,4-tetrahydroisoquinoline-6-carboxamide], in assay [1], the IC50 lay within 1 to 100 nM and the “Selectivity (6 v 8)” value is on record as “V (V: >1000)”. The IC50 in assay [2] is > 100000 nM.

For the compound `O=C(NO)c1cc(F)c2c(c1)CCN(CC13CC4CC(CC(C4)N1)C3)C2` [Compound 176], in assay [1], the IC50 lay in the range of 1 to 100 nM and the “Selectivity (6 v 8)” value was “V (V: >1000)”. Also, the 50% inhibitory concentration (IC50) in assay [2] was 10000 to 100000 nM.

With `CC[C@@H]1Cc2c(F)cc(C(=O)NO)cc2CN1CC12CC(C1)N(C)C2` (single isomer, unassigned) [Compound 534], in assay [1], the IC50 lay in the range of 100 to 1000 nM and the “Selectivity (6 v 8)” value is listed as “IV (IV: >100-1000)”. The same compound displayed an IC50 in assay [2] of 10000 to 100000 nM.

Regarding `CC[C@H]1Cc2c(F)cc(C(=O)NO)cc2CN1C1CCC1` (single isomer, unassigned) [Compound 597], in assay [1], the IC50 was 100 to 1000 nM and the “Selectivity (6 v 8)” value is given as “IV (IV: >100-1000)”. This compound came in with an IC50 in assay [2] of 10000 to 100000 nM.

Take `CC[C@H]1Cc2c(F)cc(C(=O)NO)cc2CN1C[C@]12CN[C@H](CO1)C2` (single isomer, unassigned) [Compound 549]: in assay [1], the IC50 is 1 to 100 nM and the “Selectivity (6 v 8)” value is listed as “IV (IV: >100-1000)”. In assay [2], this compound registered an IC50 of 10000 to 100000 nM.
